In patent US20240417735A1, “ORAL CODELIVERY OF 5-FLUOREURACIL AND Bcl2 siRNA TREATING STOMACH CANCER” (Board of Regents, The University of Texas System, priority 2023, published 2024):

Experiments:
[1] = system: stomach cancer mice model; experiment: TUNEL assay of apoptosis in stomach tissue of stomach cancer mice; assay type: in vivo, C57BL/6 mice; conditions: relative to untreated control; oral, 5 doses every 3rd day
Procedure: (§1) A stomach cancer mice model was developed by feeding N-methyl-N-nitrosourea (NMNU) with water (IACUC protocol no A-201019-A). The 6-week-old C57BL/6 mice were kept in a 12 hr light-12 hr dark cycle. The mice had unprotected access to food and water. NMNU was dissolved in distilled water available ad libitum, freshly prepared three times per week. The mice received 240 ppm NMNU in the drinking water over 5 weeks (every other week). Five weeks after NMNU administration, the mice were ready for the experiment, as the method was reported elsewhere. A total of 30 stomach cancer mice were prepared and divided randomly into 5 groups—no treatment (control), 5FU, BG/5FU, siRNA, BG/siRNA, and BG/5FU/siRNA. Another group of healthy mice were used as a negative control without any treatment. […] Immediately after harvesting the size and weight of the stomach and intestine were measured.
A TUNEL assay was conducted to investigate the apoptosis within the tissue from the stomach of both healthy, untreated cancer, and treated cancer mice. […] Apoptosis was quantified by the mean fluorescent intensity and compared with healthy control and untreated control. The degree of apoptosis was calculated as 49, 107, 38, 62, and 131% for the 5FU, BG/5FU, siRNA, BG/siRNA, and BG/5FU/siRNA group relative to untreated control, respectively.

[2] = system: Bcl2; experiment: Western blotting of Bcl2 in stomach tissue lysate; assay type: in vivo, C57BL/6 mice; conditions: healthy = 1
Procedure: as §1, with “treatment. To investigate therapeutic feasibility, 5FU (10 mg/kg) and siRNA (100 nM) was administered either orally (PO) or intravenously (IV). All the formulations were freshly prepared prior to administration.” for “treatment.”
The fresh frozen stomach tissue was homogenized using RIPA buffer with freshly prepared protease inhibitor in it. […] The supernatant was collected, and the total protein content was determined using Bradford's assay (Sigma-Aldrich). […] The band intensities were calculated using ImageJ software.

[3] = system: Bcl2; experiment: Immunohistochemistry/immunofluorescence of Bcl2 in stomach sections; assay type: in vivo, C57BL/6 mice; conditions: anti-Bcl2 positive area vs whole section stained with DAPI
Procedure: as §1, with “measured. […]” for “measured.”
The stomach tissue was also utilized to analysis Bcl2 protein expression using immunohistochemistry (IHC). The anti-Bcl2 positive area was quantified in comparison to the whole tissue section stained with DAPI. […] To measure the relative expression of Bcl2 on the tissue section the data was calculated and compared with the stomach tissue collected from the healthy mice, where Bcl2 expression in healthy mice was considered as 100% (FIG. 5B). […]

[4] = system: Ki67; experiment: Immunofluorescence of Ki67 in stomach sections; assay type: in vivo, C57BL/6 mice; conditions: vs whole tissue section DAPI stained
Procedure: as §1, with “measured. […]” for “measured.”
Cell proliferation marker was measured by immunofluorescence assay to evaluate the antitumor effect of the formulations. […] The protein expression was quantified from immunofluorescence images. The area with Ki67 positive cells was measured in compared to the whole tissue section with DAPI stained. The area (%) of healthy, untreated, 5FU, BG/5FU, siRNA, BG/siRNA, and BG/5FU/siRNA was measured as 0.16%, 0.27%, 0.54%, 0.52%, 0.38%, 0.29%, and 0.03%, respectively. […]

[5] = system: stomach cancer mice model; experiment: H&E histology of stomach; assay type: in vivo, C57BL/6 mice; conditions: 10× magnification, whole tumor area
Procedure: A stomach cancer mice model was developed by feeding N-methyl-N-nitrosourea (NMNU) with water (IACUC protocol no A-201019-A). The 6-week-old C57BL/6 mice were kept in a 12 hr light-12 hr dark cycle. The mice had unprotected access to food and water. NMNU was dissolved in distilled water available ad libitum, freshly prepared three times per week. The mice received 240 ppm NMNU in the drinking water over 5 weeks (every other week). Five weeks after NMNU administration, the mice were ready for the experiment, as the method was reported elsewhere. A total of 30 stomach cancer mice were prepared and divided randomly into […]—no treatment (control), 5FU, BG/5FU, siRNA, BG/siRNA, and BG/5FU/siRNA. Another group of healthy mice were used as a negative control without any treatment. To investigate therapeutic feasibility, 5FU (10 mg/kg) and siRNA (100 nM) was administered either orally (PO) or intravenously (IV). All the formulations were freshly prepared prior to administration. Formulations were administered orally on every 3rd day for the subsequent 5 cycles over 15 days. The animals were sacrificed 72 hr after the last treatment followed by the organ harvest and blood collection for further studies. Immediately after harvesting the size and weight of the stomach and intestine were measured. […]

[6] = system: advanced colorectal cancer; conditions: cited from earlier work
[7] = Ex vivo diffusion study in porcine intestine lumen; assay type: in vitro ADME; conditions: for distribution in intestine layers (fluorescence): with BG
Source text: The mucoadhesiveness and intestinal transportation of hydrophobic small molecule were further confirmed by an ex vivo diffusion study in a porcine intestine lumen. As the mucous layer is a barrier for hydrophobic molecules, to check how it crosses through the epithelial layer with assistance of BG we have used coumarin-6, a small molecule hydrophobic fluorescent dye with similar chemical and physical properties (molecular weight and hydrophobicity) as 5FU, for ease of visualization and detection purpose. […] The same tissue was subjected to be observed under a ChemiDoc imager to capture the fluorescence signal within the cross-sectioned of the intestinal lumen and similar result was observed. With time (30 min, 2 hr, and 12 hr) more coumarin-6 were distributed throughout the intestine which is an indication and confirmation of BG's ability to facilitate intestinal transportation of hydrophobic payload (FIG. 2C).

Structure (SMILES) | degree of apoptosis (mean fluorescent intensity) [1] | Relative expression of Bcl2 (WB) [2] | area percentage of Bcl2 antibodies [3] | area of Ki67 positive cells [4] | tumor in stomach by H&E [5] | treatment response rate [6] | distribution in intestine layers (fluorescence) ([7]; 2nd hr) | distribution in intestine layers (fluorescence) ([7]; 12th hr) | diffusion through the intestinal layer ([7]; without BG)
O=c1[nH]cc(F)c(=O)[nH]1 [5FU, 5-fluoreuracil] | 49% | 1.24±0.11 | 1.22% | 0.54% | tumor region got significantly reduced | 10-15% |  |  | 
CCN(CC)c1ccc2cc(-c3nc4ccccc4s3)c(=O)oc2c1 [coumarin-6, Coumarin 6] |  |  |  |  |  |  | observed within deeper layers of the intestine | incorporates evenly across the layers of the intestine | not able to diffuse through the intestinal layer
